The values that follow come from the NIST ThermoML archive (doi:10.1016/j.fluid.2018.12.005).

A word on the refractive index: it is the speed of light in vacuum divided by its phase velocity in the sample. What is called vapor or sublimation pressure is the equilibrium pressure above the liquid or solid. By mass density is commonly meant mass per unit of volume.

Where “and” joins values, the source holds several entries; their conditions need not be identical. Equal values may be shown once. ± gives the expanded uncertainty stated by the source.

The nature of data set [1]: refractive index (Na D-line) (dimensionless). Conditions: 298.15 K; 101.33 kPa; Liquid; Standard Abbe refractometry.
For data set [2] the following is noted: Liquid; for vapor or sublimation pressure: Closed cell (Static) method; for mass density: 298.15 K, 101.33 kPa, Vibrating tube method.

On to `FC(F)(F)C(F)(F)C(F)(F)C(F)(F)C(F)(F)C(F)(F)C(F)(F)C(F)(F)F` [octadecafluorooctane], for which, in data set [1], the refractive index was 1.268 ± 0.002. The “vapor or sublimation pressure” value in data set [2] (283.15 K) is on record as 1.51 ± 0.2 kPa; in data set [2] (293.15 K), 2.72 ± 0.2 kPa; in data set [2] (303.15 K) it was 4.72 ± 0.2 kPa; in data set [2] (313.15 K), 7.86 ± 0.21 kPa; in data set [2] (323.16 K), 12.6 ± 0.21 kPa. Besides, the mass density in data set [2] amounted to 1755 ± 2 kg/m3.

For the compound `CCCCCC` [hexane], in data set [1], the refractive index stood at 1.375 ± 0.002. Also, in data set [2], the mass density is given as 655 ± 2 kg/m3.

For `FC(F)(F)C(F)(F)C(F)(F)C(F)(F)C(F)(F)C(F)(F)F` [perfluorohexane], in data set [1], the refractive index was 1.251 ± 0.002 and 1.253 ± 0.002. In addition, the “vapor or sublimation pressure” value is reported as 14.6 ± 0.2 kPa in data set [2] (283.14 K); 14.4 ± 0.2 kPa in data set [2] (283.16 K); 23.5 ± 0.3 kPa in data set [2] (293.14 K); 23.4 ± 0.3 kPa in data set [2] (293.15 K); 36.2 ± 0.3 kPa in data set [2] (303.12 K); 36.3 ± 0.3 kPa in data set [2] (303.15 K). Further, the “vapor or sublimation pressure” value came out at 54.1 ± 0.4 kPa in data set [2] (313.13 K), 54.4 ± 0.4 kPa in data set [2] (313.2 K), 78.8 ± 0.5 kPa in data set [2] (323.13 K) and 78.9 ± 0.4 kPa in data set [2] (323.17 K). Further, the mass density in data set [2] is 1701 ± 7 kg/m3 and 1670 ± 2 kg/m3.
